Laboratory results reported in patent publication US5106870A, “Methods for the use of thromboxane A2 antagonists” (National Research Development Corporation, priority 1990, dated 1992).

Tests used:
[1] = test system: U-46619-induced platelet aggregation; assay: Inhibition of U-46619-induced platelet aggregation in rat platelet rich plasma (in vitro); format: cell-based; settings: rat PRP
Experimental: a. Inhibition of U-46619-induced platelet aggregation (rat)
Platelet rich plasma (PRP) was prepared from heparanized whole blood (5 units/ml) drawn from the abdominal aorta of ether anesthetized rats. PRP was prepared by centrifugation (Sorvall RC2B, DuPont, Wilmington, Del.) of the whole blood at 150×g for 10 min. Platelet poor plasma (PPP) was prepared by centrifugation at 1200×g for 20 min. Aliquots of PRP and PPP were used to standardize the aggregometer (Payton, Buffalo, N.Y., model 300B) with the recorder (Riken Denshi 2 channel recorder, Payton, model SP-H5P) for measurement of minimum and maximum light transmittance, respectively.
Platelet aggregation was measured as an increase in light transmittance. PRP (390 μl aliquot +5 μl compound vehicle) was preincubated for 1 min. at 37° C., with stirring at 900 rpm in the aggregometer. The vehicle control response was obtained by adding U-46619 (Cayman Chemical, Ann Arbor, Mich., 1-2 units/cuvette/10 μl) to the aliquot of PRP. Aggregation was monitored until maximum aggregation was achieved (approximately 3 min. following the addition of U-46619). Amount of aggregation was measured by grids on the strip chart.
Compounds were dissolved in either ethanol (ETOH) or Na2 CO3 (0.1M) and preincubated at the desired concentration in PRP for 1 min. at 37° C. with stirring. At the end of the preincubation, U-46619 was added and aggregation measured. Inhibition of aggregation by compound was calculated as percent inhibition of the control aggregation response to U-46619. Dose response curves were generated and IC50 's calculated by linear regression.

[2] = test system: U-46619 induced platelet aggregation; assay: Ex vivo inhibition of U-46619 induced platelet aggregation, intravenous; format: in vivo; settings: rat
Experimental: (§1) II. Ex vivo--(rat) Inhibition of U-46619 induced platelet aggregation
Rats were anesthetized with ether and the jugular vein exposed. Compound dissolved in 0.1M Na Carbonate was injected as a bolus into the jugular vein. Blood (5 ml, heparanized) was sampled 30 sec. later from the abdominal aorta. PRP was prepared by quick centrifugation (Eppendorf, model 5415 at 12,000 rpm for 5 sec. PPP was prepared by centrifugation for 2 min. PRP was diluted 1:1 with PPP from similarly treated animals. Aggregation was monitored for 5 min. and inhibition was determined as previously described.

[3] = test system: U-46619 induced platelet aggregation; assay: Ex vivo inhibition of U-46619 induced platelet aggregation, intragastric; format: in vivo; settings: rat
Experimental: as §1
Compounds dissolved in Na Carbonate were administered to conscious rats with an I.G. tube. Fifteen minutes post administration (time previously determined to show maximum effect), rats were anesthetized with ether and blood was sampled from the abdominal aorta, PRP was prepared as described in II a.

human washed platelets = assay: Analysis of partial agonism (shape change/aggregation) in human washed platelets; format: cell-based; settings: 5 and 10 min incubation
Experimental: b. Analysis of partial agonism with SC-46985 (human washed platelets)
Sixty ml of blood were drawn into 1/10 volume of CCD (100 mM Na Citrate and 136 mM glucose, pH 6.5 with HCl) and PRP prepared as described above. PRP was placed on ice for 15 min. One half of the volume of CCD was added and recentrifuged. The platelet pellet was gently resuspended in 1/2 the original volume of PRP in a 0° C. modified Tangen-Hepes-BSA buffer (145 mM NaCl, 5 mM KCl, 0.05 mM CaCl2, 0.1 mM MgCl2, 11 mM glucose, 15 mM Hepes, 1 mg/ml bovine serum albumin, pH adjusted to 7.4 with NaOH). The resuspended platelets were incubated undisturbed at 37° C. for 30 min. After incubation a platelet count was determined and adjusted to 3×10^8 cells/ml with the Tangen-Hepes-BSA buffer.
425 μl of the washed human platelet suspension was incubated in the aggregometer in the presence of 16 mM CaCl2 (50 μl) and SC-46985 for 5 and 10 min. […] (In a study similar to (a) above, aliquots of human washed platelets were incubated with various concentrations of SC-46985 and U-46619 to determine dose-related inhibition of aggregation).

CC(=NNC(=S)Nc1ccccc1)[C@@H]1[C@H]2CC[C@H](C2)[C@H]1C/C=C\CCCC(=O)O (relative stereo) [SC-44161, (±)7-[3α[[(Phenylamino)thioxomethyl]hydrazono]ethyl]1α,4α-bicyclo[2.2.1]hept-2β-yl]-5Z-heptenoic acid]
more potent in aqueous solution than when dissolved in ethanol ([1]; aqueous (Na Carbonate) vs ethanol): 5-10 fold

CC(=NNC(=S)Nc1ccccc1)[C@@H]1[C@H]2CC[C@H](C2)[C@H]1C/C=C\CCCC(=O)O [SC-46984, 7-[3α-[1-[[(Phenylamino)thioxomethyl]hydrazono]ethyl]-1R,1α,4α-bicyclo-[2.2.1]hept-2β-yl]-5Z-heptenoic acid]
more potent than SC-44161 (ED50) [2]: approximately 3.5 times
more potent than SC-44161 (I.G. ED50) [3]: approximately 2.8 times
more potent than SC-44161 ([1]; in vitro): approximately 100 times

CC(=NNC(=S)Nc1ccccc1)[C@H]1[C@@H]2CC[C@@H](C2)[C@@H]1C/C=C\CCCC(=O)O [SC-46985]
less potent than SC-44161 (ED50) [2]: approximately 1.5 times
partial agonist activity (shape change or aggregation) (human washed platelets): no evidence of shape change or aggregation

CC(=NNC(=S)Nc1ccccc1)[C@@H]1[C@H]2CC[C@H](C2)[C@H]1C/C=C/CCCC(=O)O [SC-47721, 7-[3α-[1-[[(Phenylamino)thioxomethyl]hydrazono]ethyl]-1R,1α,4α-bicyclo-[2.2.1]hept-2β-yl]-5E-heptenoic acid]
inhibition of U-46619 induced aggregation ([3]; 1 mg/kg, 15 min post administration): 37.5%
more potent than SC-44161 ([1]; in vitro): 10-50 times
potency compared with SC-46984 ([1]; in vitro): less potent than SC-46984
